Here are results for 1 molecule from PMC11233931, “Remodeling tumor‐associated macrophage for anti‐cancer effects by rational design of irreversible inhibition of mitogen‐activated protein kinase‐activated protein kinase 2” (MedComm, 2024).

One may read the AUC(0-t) as the area under the concentration-time curve up to a stated or last time point. Low values mean less exposure, high ones more exposure. What is called Cmax is the peak of the concentration-time curve. In general, Tmax refers to the time from dosing to the highest level. As a reminder, the half-life is how long it takes for the measured level to halve. In general, IC50 refers to the concentration at which inhibition is half-maximal.

The test system of data set [1] is MRC1 and ARG-1 mRNA in bone marrow-derived macrophages (BMDM). Description: RT-PCR of M2 markers in IL-4/IL-13 stimulated BMDM. Type of data set: cell-based, mouse. As to conditions: IL-4/IL-13 20 ng/mL. An excerpt: A previous study has reported that MK2 fostered M2‐like polarization of TAMs, driving a protumor and proangiogenic phenotype which in turn accelerates tumor progression.[21] We thus assessed the influence of compound 11 on macrophage polarization and function. Our experiments used human THP‐1 monocyte induced macrophages, mouse RAW264.7 macrophages, and mouse bone marrow‐derived macrophages (BMDM). These cells were induced into M2‐like macrophages using the classic IL‐4 and IL‐13 stimuli.
FIGURE 5 Inhibition of pro‐tumorigenic M2‐like polarization in macrophages by compound 11. (A–C) RT‐PCR analysis highlights the impact of compound 11 on MRC1 and ARG‐1 mRNA expression in various macrophage cells treated with IL‐4/IL‐13 alone or combined with compound 11 for 12 h or 24 h. […] Data are shown as the mean ± SD. ^* p < 0.05; ^*** p < 0.001 versus the vehicle group, determined by unpaired t test. […]
Total RNA was extracted from cultured cells using the EZ‐press RNA Purification Kit (EZBioscience). Complementary DNA was synthesized using the ABScript III RT Master Mix for qPCR with gDNA remover (ABclonal Technology) and was quantified with primers listed in Table S5. The relative mRNA expression levels were quantified through qPCR using the SYBR green gene expression assay (ABclonal Technology).

Data set [2] is described as follows: Mouse pharmacokinetics study. To be noted: male, ICR, plasma, mice, ip. 10 mg/kg, mean ± SD. The format is in vivo. The protocol: Compound 11 was dissolved in DMSO/Tween 80/PEG400/NaCl (5/5/45/45, v/v/v/v) to a concentration of 5 mg/mL and given to ICR mice (male, 18−22 g, n = 3) by intraperitoneal injection. Blood samples were obtained at intervals of 0.25, 0.5, 1, 2, 4, and 8 h following administration. The sample preparation and the analysis were following the protocol provided in the Supporting Information Methods.
[…] of plasma was mixed with […] of methanol: acetonitrile solvent (1:1, v/v) with internal standard, and the mixture was thoroughly vortexed. After centrifugation for 5 minutes, […] of the supernatant was combined with […] of water for analysis. Samples were analyzed by Xevo TQ-S triple quadrupole mass spectrometer. The ACQUITY UPLC BEH C^18 (1.7 µm, 2.0mm_ 50 mm, Waters, USA) was adopted for the analysis. Gradient elution was employed using a 5 mM ammonium acetate aqueous solution containing 0.1% formic acid, along with acetonitrile containing 0.1% formic acid. Following the analysis of compound concentrations, Phoenix WinNonlin (CERTARA, USA) was utilized to calculate the value of AUClast, AUCINFinf_obs and MRTINFinf_obs from time-concentration curves in each animal. Cmax denotes the peak plasma concentration, while Tmax signifies the time taken to achieve the peak concentration.

A short description of data set [3]: Cell viability assay (CCK-8), CT26. As to conditions: mouse, CT26 cells (colorectal carcinoma), CT26, murine colorectal carcinoma, read-out: IC50 (μM) mean ± SD, cytotoxicity. Type of data set: cell-based. The protocol:
In cellular experiments, cells are seeded into either 6-well or 96-well plates and incubated overnight, proceeding with treatments as described in the figure legends or methods section. The cell inoculation numbers are outlined as follows: For assays measuring cell viability, between 3,000 to 5,000 cells are seeded per well in 96-well plates. For other cellular assays, the seeding density ranges from 5×10^5 to 1×10^6 cells per well in 6-well plates.
Cells was plated into 96-well plates and incubated overnight prior to introduction of varying concentrations of compounds or control solvent. Following a 72-hour exposure period, cell viability was determined using a Cell Counting Kit-8 assay (Life-iLab, China). Dose-response curves were fitted using a four-parameter method facilitated by SoftMax Pro, which was subsequently used for the computation of IC50 values.

For the molecule `C=CC(=O)Nc1cc(-c2cc(-c3cc4c([nH]3)CCNC4=O)ccn2)ccc1OC(F)(F)F` [compound 11], the “effect on transcriptional level of MRC1 and ARG-1” value in data set [1] was “significantly suppressed”. In addition, in data set [2], the AUC(0-t) was determined as 44.5 ± 21.4 ng·h/mL, the concentration peaked (Cmax) at 126 ng/mL, the Tmax amounted to 3 min and the half-life was 22.8 min. The AUC in data set [2] (read-out: AUCinf_obc) amounted to 45.2 ± 21.3 ng·h/mL. Moreover, the MRT inf in data set [2] (read-out: MRTinf_obs) is 98.4 ± 125 min. Also, in data set [3], the IC50 at 72 h amounted to 47.2 ± 2.4 µM.
